We go through 32 compounds from patent US20050143382A1 (4SC AG, priority 2003, published 2005).

SMILES strings stand for the structures. Some results are limits rather than exact numbers.

What all share (format): biochemical
What all share (conditions): recombinant human kinase, 1 μM ATP

In one test the target is T1, IGF-1 R (Homo sapiens, UniProt P08069).
T1 construct: made in house; host or cells: Sf9 insect cells (baculovirus)
As to the kind of experiment: 33PanQinase protein kinase activity assay, IGF-1 R. How it is done:
(§1) The effect of the farazanopyrazine derivatives was tested on recombinant, human protein kinases. All protein kinases were expressed in Sf9 insect cells as human recombinant GST-fusion proteins or as His-tagged proteins by means of the baculovirus expression system. Protein kinases were purified by affinity chromatography using either GSH-agarose or Ni-NTH-agarose. The purity and identity of each was checked by SDS-PAGE/silver staining and by western blot analysis with specific antibodies.
(§2) A proprietary protein kinase assay (^33 PanQinase® Activity Assay) was used for measuring the kinase activity. All kinase assays were performed in 96-well FlashPlates™ in a 50 μl reaction volume. The assay for all enzymes contained 60 mM HEPES-NaOH, pH 7.5, 3 mM MgCl2, 3 mM MnCl2, 3 μM Na-orthovanadate, 1.2 mM DTT, 50 μg/ml PEG20000 and 1 μM [γ-^33P]-ATP (approx. 5×10^5 cpm per well).
(§3) The reaction cocktails were incubated at 30° C. for 80 minutes. The reaction was stopped with 50 μl of 2% (v/v) H3PO4, plates were aspirated and washed two times with 200 μl of 0.9% (w/v) NaCl. Incorporation of 33Pi was determined with a microplate scintillation counter. All assays were performed with a BeckmanCoulter/Sagian robotic system.

The next test deals with T2, SRC kinase (Homo sapiens, UniProt P12931).
T2 construct: made in house; host or cells: Sf9 insect cells (baculovirus)
As to the kind of experiment: 33PanQinase protein kinase activity assay, SRC. How it is done: as §1, §2, §3

Another test deals with T3, VEGF-R2 (Homo sapiens, UniProt P35968).
T3 construct: made in house; host or cells: Sf9 insect cells (baculovirus)
As to the kind of experiment: 33PanQinase protein kinase activity assay, VEGF-R2. How it is done:
as §1, §2, §3

T1 sequence (P08069 31-1367): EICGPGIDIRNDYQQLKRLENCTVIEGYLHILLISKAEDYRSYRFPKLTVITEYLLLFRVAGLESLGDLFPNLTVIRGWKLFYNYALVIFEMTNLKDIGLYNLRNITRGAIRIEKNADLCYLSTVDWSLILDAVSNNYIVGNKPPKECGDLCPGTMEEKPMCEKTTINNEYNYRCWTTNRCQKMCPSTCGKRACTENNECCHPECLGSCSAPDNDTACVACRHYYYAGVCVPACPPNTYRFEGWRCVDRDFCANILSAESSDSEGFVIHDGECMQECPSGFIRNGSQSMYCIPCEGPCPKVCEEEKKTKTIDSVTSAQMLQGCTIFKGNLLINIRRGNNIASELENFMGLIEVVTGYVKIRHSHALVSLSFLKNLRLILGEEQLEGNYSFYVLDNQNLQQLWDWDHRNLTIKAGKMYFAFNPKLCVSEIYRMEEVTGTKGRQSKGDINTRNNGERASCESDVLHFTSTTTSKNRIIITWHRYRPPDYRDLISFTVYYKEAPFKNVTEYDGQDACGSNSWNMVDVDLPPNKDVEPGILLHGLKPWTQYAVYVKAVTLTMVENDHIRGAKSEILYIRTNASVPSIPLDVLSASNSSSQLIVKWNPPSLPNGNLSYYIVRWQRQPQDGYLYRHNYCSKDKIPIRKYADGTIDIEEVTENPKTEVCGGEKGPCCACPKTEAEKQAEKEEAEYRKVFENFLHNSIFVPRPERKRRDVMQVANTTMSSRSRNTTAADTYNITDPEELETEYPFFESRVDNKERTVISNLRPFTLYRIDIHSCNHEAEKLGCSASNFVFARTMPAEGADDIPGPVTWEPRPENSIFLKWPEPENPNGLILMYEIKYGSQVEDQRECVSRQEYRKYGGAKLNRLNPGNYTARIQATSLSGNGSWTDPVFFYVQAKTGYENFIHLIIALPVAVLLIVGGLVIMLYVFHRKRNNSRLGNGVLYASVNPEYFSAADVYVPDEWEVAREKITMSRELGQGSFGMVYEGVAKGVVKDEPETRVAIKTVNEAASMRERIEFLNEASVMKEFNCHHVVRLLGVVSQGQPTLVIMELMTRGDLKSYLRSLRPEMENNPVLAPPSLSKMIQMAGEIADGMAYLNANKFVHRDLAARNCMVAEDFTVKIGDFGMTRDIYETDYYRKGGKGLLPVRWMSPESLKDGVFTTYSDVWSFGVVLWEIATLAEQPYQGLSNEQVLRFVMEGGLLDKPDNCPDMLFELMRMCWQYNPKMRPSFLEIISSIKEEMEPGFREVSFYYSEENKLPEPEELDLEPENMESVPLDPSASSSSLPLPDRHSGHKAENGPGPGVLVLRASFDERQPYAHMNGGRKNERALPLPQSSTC
T3 sequence (P35968 20-1356): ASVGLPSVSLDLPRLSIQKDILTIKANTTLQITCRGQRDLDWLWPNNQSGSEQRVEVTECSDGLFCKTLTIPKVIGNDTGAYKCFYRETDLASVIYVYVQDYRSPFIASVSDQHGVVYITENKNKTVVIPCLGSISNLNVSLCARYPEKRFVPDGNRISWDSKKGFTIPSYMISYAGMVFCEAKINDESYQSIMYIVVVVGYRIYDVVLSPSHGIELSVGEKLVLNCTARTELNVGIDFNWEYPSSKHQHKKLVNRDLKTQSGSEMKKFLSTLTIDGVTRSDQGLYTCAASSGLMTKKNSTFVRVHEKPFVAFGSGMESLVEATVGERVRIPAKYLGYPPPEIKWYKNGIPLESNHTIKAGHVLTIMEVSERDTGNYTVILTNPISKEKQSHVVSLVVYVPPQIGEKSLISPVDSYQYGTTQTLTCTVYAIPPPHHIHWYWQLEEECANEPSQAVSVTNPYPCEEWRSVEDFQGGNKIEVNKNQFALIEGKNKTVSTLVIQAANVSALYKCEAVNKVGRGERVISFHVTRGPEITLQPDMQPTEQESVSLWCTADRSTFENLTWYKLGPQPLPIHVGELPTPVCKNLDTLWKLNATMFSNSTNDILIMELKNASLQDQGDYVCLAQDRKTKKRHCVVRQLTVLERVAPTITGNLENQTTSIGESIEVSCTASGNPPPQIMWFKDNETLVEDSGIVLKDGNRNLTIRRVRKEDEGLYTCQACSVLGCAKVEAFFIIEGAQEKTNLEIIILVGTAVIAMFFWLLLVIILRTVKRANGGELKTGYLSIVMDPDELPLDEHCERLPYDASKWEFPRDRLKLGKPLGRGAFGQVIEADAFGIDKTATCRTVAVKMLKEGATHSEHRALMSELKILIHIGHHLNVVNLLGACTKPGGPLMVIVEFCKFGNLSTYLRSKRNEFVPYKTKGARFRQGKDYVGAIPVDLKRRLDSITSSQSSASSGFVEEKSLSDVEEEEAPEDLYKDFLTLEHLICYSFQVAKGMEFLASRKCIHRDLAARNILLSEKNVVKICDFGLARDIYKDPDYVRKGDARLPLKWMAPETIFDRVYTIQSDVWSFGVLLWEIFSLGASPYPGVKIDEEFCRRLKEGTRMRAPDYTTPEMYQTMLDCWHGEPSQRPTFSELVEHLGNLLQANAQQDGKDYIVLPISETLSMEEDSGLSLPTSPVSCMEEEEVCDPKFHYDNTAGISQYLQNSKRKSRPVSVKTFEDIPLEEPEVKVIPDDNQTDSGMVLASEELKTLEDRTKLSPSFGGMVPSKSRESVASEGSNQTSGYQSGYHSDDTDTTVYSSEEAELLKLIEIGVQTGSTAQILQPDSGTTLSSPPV
T2 sequence (P12931 whole entry): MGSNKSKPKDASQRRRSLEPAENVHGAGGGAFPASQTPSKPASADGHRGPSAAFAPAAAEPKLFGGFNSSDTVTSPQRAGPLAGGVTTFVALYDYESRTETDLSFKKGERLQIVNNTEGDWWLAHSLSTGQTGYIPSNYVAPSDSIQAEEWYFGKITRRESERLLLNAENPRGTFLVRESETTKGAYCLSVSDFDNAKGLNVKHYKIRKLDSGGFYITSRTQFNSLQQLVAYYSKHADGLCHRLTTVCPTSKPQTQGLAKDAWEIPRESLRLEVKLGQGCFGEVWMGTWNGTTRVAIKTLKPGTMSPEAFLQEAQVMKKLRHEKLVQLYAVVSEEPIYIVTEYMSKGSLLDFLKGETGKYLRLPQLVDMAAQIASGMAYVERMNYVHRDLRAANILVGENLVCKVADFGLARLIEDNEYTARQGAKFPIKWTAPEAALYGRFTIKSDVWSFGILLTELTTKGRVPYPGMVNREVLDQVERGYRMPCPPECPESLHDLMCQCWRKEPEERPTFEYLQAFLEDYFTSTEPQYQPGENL

For orientation: IC50 means the concentration that gives 50% inhibition. In the case of `Cc1cccc(Nc2nc3nonc3nc2NN=Cc2ccc(-c3ccc(Cl)c(C(=O)O)c3)o2)c1C` [Example 2], the half-maximal inhibitory concentration (IC50) was less than 1000 nM at IGF-1 R, less than 1000 nM on SRC kinase and less than 2000 nM at VEGF-R2.
For the compound `Oc1c(Br)cc(Cl)cc1C=NNc1nc2nonc2nc1Nc1ccc(Cl)c(Cl)c1` [Example 14], the values for the IC50 at IGF-1 R, at SRC kinase and on VEGF-R2 were less than 1000 nM, less than 1000 nM and less than 2000 nM, respectively.
For the compound `Fc1ccc(Nc2nc3nonc3nc2NN=Cc2ccc(-c3ccc(Cl)cc3Cl)o2)cc1` [Example 15, (6-{N′-[5-(2,4-Dichloro-phenyl)-furan-2-ylmethylene]-hydrazino}-[1,2,5]oxadiazolo [3,4-b]pyrazin-5-yl)-(4-fluoro-phenyl)-amine], the IC50 on SRC kinase is less than 1000 nM; at VEGF-R2, less than 2000 nM.
On to `Cc1cc(C)c([N+](=O)[O-])cc1-c1ccc(C=NNc2nc3nonc3nc2Nc2ccccc2F)o1` [Example 29, (6-{N′-[5-(2,4-Dimethyl-5-nitro-phenyl)-furan-2-ylmethylene]-hydrazino}-[1,2,5]oxadiazolo[3,4-b]pyrazin-5-yl)-(2-fluoro-phenyl)-amine], for which the IC50 at IGF-1 R and at SRC kinase was less than 1000 nM each time.
Consider `Oc1c(Br)cc(Br)cc1C=NNc1nc2nonc2nc1Nc1ccc(Cl)cc1` [Example 30], for which the half-maximal inhibitory concentration (IC50) at IGF-1 R and on SRC kinase was less than 1000 nM each time.
For the compound `Cc1ccc(Nc2nc3nonc3nc2NN=Cc2ccc(-c3cc(C)cc([N+](=O)[O-])c3C)o2)cc1` [Example 33, (6-[N′-[5-(2,5-Dimethyl-3-nitro-phenyl)-furan-2-ylmethylene]-hydrazino}-[1,2,5]oxadiazolo[3,4-b]pyrazin-5-yl)-p-tolyl-amine], the IC50 on SRC kinase is less than 1000 nM.
With `Oc1c(I)cc(I)cc1C=NNc1nc2nonc2nc1Nc1cccc(Br)c1` [Example 35], the results for the IC50 on IGF-1 R, on SRC kinase and on VEGF-R2 were less than 1000 nM, less than 1000 nM and less than 2000 nM, respectively.
Take `O=[N+]([O-])c1cc(-c2ccc(C=NNc3nc4nonc4nc3Nc3cccc(C(F)(F)F)c3)o2)ccc1Cl` [Example 36, (6-{N-[5-(4-Chloro-3-nitro-phenyl)-furan-2-ylmethylene]-hydrazino}-[1,2,5]oxadiazolo [3,4-b]pyrazin-5-yl)-(3-trifluoromethyl-phenyl)-amine]: the concentration for half-maximal inhibition (IC50) at IGF-1 R and at SRC kinase was less than 1000 nM throughout.
Regarding `CCOC(=O)c1ccc(Nc2nc3nonc3nc2NN=Cc2cccc([N+](=O)[O-])c2O)cc1` [Example 37, 4-{6-[N′-(2-Hydroxy-3-nitro-benzylidene)-hydrazino]-[1,2,5]oxadiazolo[3,4-b]pyrazin-5-ylamino}-benzoic Acid Ethyl Ester], at SRC kinase, the IC50 was less than 1000 nM.
Take `O=[N+]([O-])c1ccc(-c2ccc(C=NNc3nc4nonc4nc3Nc3ccc(F)cc3)o2)cc1` [Example 39, (4-Fluoro-phenyl)-(6-{N′-[5-(4-nitro-phenyl)-furan-2-ylmethylene]-hydrazino}-[1,2,5]oxadiazolo[3,4-b]pyrazin-5-yl)-amine]: the IC50 on IGF-1 R and on SRC kinase was less than 1000 nM each time.
For the compound `O=c1[nH]c2ccc(Nc3nc4nonc4nc3NN=Cc3cc(I)cc(I)c3OCc3ccc(Cl)cc3Cl)cc2[nH]1` [Example 55, 5-(6-{N′-[2-(2,4-Dichloro-benzyloxy)-3,5-diiodo-benzylidene]-hydrazino}-[1,2,5]oxadiazolo[3,4-b]pyrazin-5-ylamino)-1,3-dihydro-benzoimidazol-2-one], the IC50 at IGF-1 R and at SRC kinase was less than 1000 nM in each case.
On to `C(=NNc1nc2nonc2nc1Nc1ccccc1)c1cc2ccccc2o1` [Example 88, [6-(N′-Benzofuran-2-ylmethylene-hydrazino)-(1,2,5]oxadiazolo[3,4-b]pyrazin-5-yl]-phenyl-amine], for which the IC50 at SRC kinase was less than 1000 nM.
Turning to `O=[N+]([O-])c1cccc(-c2ccc(C=NNc3nc4nonc4nc3Nc3ccccc3)o2)c1` [Example 90, (6-{N′-[5-(3-Nitro-phenyl)-furan-2-ylmethylene]-hydrazino}-[1,2,5]oxadiazolo [3,4-b]pyrazin-5-yl)-phenyl-amine], the IC50 on SRC kinase is less than 1000 nM.
In the case of `O=[N+]([O-])c1cccc(-c2ccc(C=NNc3nc4nonc4nc3Nc3ccc(F)cc3)o2)c1` [Example 135, (4-Fluoro-phenyl)-(6-{N′-[5-(3-nitro-phenyl)-furan-2-ylmethylene]-hydrazino}-[1,2,5]oxadiazolo [3,4-b]pyrazin-5-yl)-amine], the half-inhibitory concentration (IC50) at IGF-1 R and at SRC kinase was less than 1000 nM each time.
`O=C(O)c1ccc(-c2ccc(C=NNc3nc4nonc4nc3Nc3ccc(F)cc3)o2)cc1` [Example 139]: the IC50 at IGF-1 R and at SRC kinase was less than 1000 nM throughout.
Turning to `O=C(O)c1ccc(C=NNc2nc3nonc3nc2Nc2cccc(Cl)c2)cc1` [Example 143], the IC50 on IGF-1 R is less than 1000 nM.
As to `Oc1c(Br)cc(Br)cc1C=NNc1nc2nonc2nc1Nc1cccc(Cl)c1` [Example 151], the half-inhibitory concentration (IC50) at IGF-1 R and at SRC kinase was less than 1000 nM in each case.
As for `COc1cc(Br)cc(C=NNc2nc3nonc3nc2Nc2cccc(Cl)c2)c1O` [Example 152], the IC50 at IGF-1 R was less than 1000 nM; on SRC kinase, less than 1000 nM; at VEGF-R2 it was less than 2000 nM.
For the compound `O=[N+]([O-])c1cccc(-c2ccc(C=NNc3nc4nonc4nc3Nc3cccc(Cl)c3)o2)c1` [Example 155, (3-Chloro-phenyl)-(6-{N′-[5-(3-nitro-phenyl)-furan-2-ylmethylene]-hydrazino}-[1,2,5]oxadiazolo[3,4-b]pyrazin-5-yl)-amine], the figures for the IC50 on IGF-1 R, at SRC kinase and on VEGF-R2 were less than 1000 nM, less than 1000 nM and less than 2000 nM, respectively.
Take `COc1ccc(O)c(C=NNc2nc3nonc3nc2Nc2ccc(F)c(Cl)c2)c1` [Example 167]: the IC50 on SRC kinase is less than 1000 nM.
Consider `Fc1ccc(Nc2nc3nonc3nc2NN=Cc2cc3ccccc3o2)cc1Cl` [Example 172, [6-(N′-Benzofuran-2-ylmethylene-hydrazino)-[1,2,5]oxadiazolo[3,4-b]pyrazin-5-yl]-(3-chloro-4-fluoro-phenyl)-amine], for which the IC50 was less than 1000 nM at IGF-1 R, less than 1000 nM on SRC kinase and less than 2000 nM on VEGF-R2.
As for `O=[N+]([O-])c1cccc(-c2ccc(C=NNc3nc4nonc4nc3Nc3ccc(F)c(Cl)c3)o2)c1` [Example 174, (3-Chloro-4-fluoro-phenyl)-(6-{N′-[5-(3-nitro-phenyl)-furan-2-ylmethylene]-hydrazino}-[1,2,5]oxadiazolo[3,4-b]pyrazin-5-yl)-amine], the results for the IC50 on IGF-1 R, at SRC kinase and on VEGF-R2 were less than 1000 nM, less than 1000 nM and less than 2000 nM, respectively.
`Fc1ccc(Nc2nc3nonc3nc2NN=Cc2ccc(-c3ccccc3)o2)cc1Cl` [Example 175, (3-Chloro-4-fluoro-phenyl)-{6-[N′-(5-phenyl-furan-2-ylmethylene)-hydrazino]-[1,2,5]oxadiazolo [3,4-b]pyrazin-5-yl}-amine]: the concentration for half-maximal inhibition (IC50) on IGF-1 R and on SRC kinase was less than 1000 nM throughout.
Turning to `NC(=O)c1cccc(-c2ccc(C=NNc3nc4nonc4nc3Nc3ccc(F)c(Cl)c3)o2)c1` [Example 178], the IC50 was less than 1000 nM at IGF-1 R, less than 1000 nM on SRC kinase and less than 2000 nM at VEGF-R2.
With `O=C(O)c1ccc(-c2ccc(C=NNc3nc4nonc4nc3Nc3ccc(F)c(Cl)c3)o2)cc1` [Example 179], the concentration for half-maximal inhibition (IC50) is less than 1000 nM on IGF-1 R, less than 1000 nM at SRC kinase and less than 2000 nM at VEGF-R2.
As to `Fc1ccc(Nc2nc3nonc3nc2NN=Cc2ccc(-c3ccc(Cl)cc3)o2)cc1Cl` [Example 180, (3-Chloro-4-fluoro-phenyl)-(6-{N′-[5-(4-chloro-phenyl)-furan-2-yl-methylene]-hydrazino}-[1,2,5]oxadiazolo [3,4-b]pyrazin-5-yl)-amine], the IC50 on IGF-1 R is less than 1000 nM; on SRC kinase, less than 1000 nM; at VEGF-R2, less than 2000 nM.
Consider `O=C1Nc2ccccc2C1=NNc1nc2nonc2nc1Nc1ccc(F)c(Cl)c1` [Example 182, 3-{1[6-(3-Chloro-4-fluoro-phenylamino)-[1,2,5]oxadiazolo[3,4-b]pyrazin-5-yl]-hydrazono}-1,3-dihydro-indol-2-one], for which the half-maximal inhibitory concentration (IC50) at IGF-1 R was less than 1000 nM; on SRC kinase, less than 1000 nM; at VEGF-R2 it was less than 2000 nM.
Turning to `O=C(O)c1cccc(C=NNc2nc3nonc3nc2Nc2ccc(Cl)c(Cl)c2)c1` [Example 186], the values for the half-inhibitory concentration (IC50) at IGF-1 R, at SRC kinase and on VEGF-R2 were less than 1000 nM, less than 1000 nM and less than 2000 nM, respectively.
Take `COc1ccc(O)c(C=NNc2nc3nonc3nc2Nc2ccc(Cl)c(Cl)c2)c1` [Example 191]: the results for the IC50 on IGF-1 R, at SRC kinase and on VEGF-R2 were less than 1000 nM, less than 1000 nM and less than 2000 nM, respectively.
For the compound `COc1cccc(C=NNc2nc3nonc3nc2Nc2ccc(Cl)c(Cl)c2)c1O` [Example 192], the IC50 at IGF-1 R is less than 1000 nM.
As for `Clc1ccc(Nc2nc3nonc3nc2NN=Cc2ccc(-c3ccccc3)o2)cc1Cl` [Example 195, (3,4-Dichloro-phenyl)-{6-[N′-(5-phenyl-furan-2-ylmethylene)-hydrazino]-[1,2,5]oxadiazolo[3,4-b]pyrazin-5-yl}-amine], the half-inhibitory concentration (IC50) on SRC kinase is less than 1000 nM.
Take `Clc1ccc(Nc2nc3nonc3nc2NN=Cc2ccco2)cc1Cl` [Example 197, (3,4-Dichloro-phenyl)-[6-(N′-furan-2-ylmethylene-hydrazino)-[1,2,5]-oxadiazolo[3,4-b]pyrazin-5-yl]-amine]: the half-maximal inhibitory concentration (IC50) on IGF-1 R and on SRC kinase was less than 1000 nM throughout.
